Experimental data from paper PMC3502418 (2012).

Assays:
[1] = system: DNA2-A (DNA, mismatch bulge abasic, abasic site (dSpacer, tetrahydrofuran residue) at X, opposite A, flanked by A; position in Figure 1B) ATGGTGANAGCAGCG/CGCTGCTATCACCAT; assay: UV melting at 260 nm; details: 0.1 M phosphate, 1 mM EDTA, pH 8.3 or 7.0 (unclear); 5 µM SG, 5 µM DNA
[2] = system: mismatched DNA (DNA1, X = T, Y = C) (DNA, mismatch bulge abasic) ATGGTGTTTGCAGCG/CGCTGCACACACCAT; assay: fluorescence enhancement at 586 nm; details: 0.1 M phosphate, pH 8.3 presumed; 5 µM SG; up to 5 µM DNA; weaker than DNA1-C
[3] = system: DNA2-C (DNA, mismatch bulge abasic, abasic site (dSpacer, tetrahydrofuran residue) at X, opposite C, flanked by A; position in Figure 1B) ATGGTGANAGCAGCG/CGCTGCTCTCACCAT; assay: UV melting at 260 nm; details: 0.1 M phosphate, 1 mM EDTA, pH 8.3 or 7.0 (unclear); 5 µM SG, 5 µM DNA
[4] = system: DNA1-G (DNA, mismatch bulge abasic, abasic site (dSpacer, tetrahydrofuran residue) at X, opposite G, flanked by T; position in Figure 1B) ATGGTGTNTGCAGCG/CGCTGCAGACACCAT; assay: UV melting at 260 nm; details: 0.1 M phosphate, 1 mM EDTA, pH 8.3 or 7.0 (unclear); 5 µM SG, 5 µM DNA
[5] = system: DNA3-T (DNA, mismatch bulge abasic, abasic site (dSpacer, tetrahydrofuran residue) at X, opposite T, flanked by G; position in Figure 1B) ATGGTGGNGGCAGCG/CGCTGCCTCCACCAT; assay: UV melting at 260 nm; details: 0.1 M phosphate, 1 mM EDTA, pH 8.3 or 7.0 (unclear); 5 µM SG, 5 µM DNA
[6] = system: DNA3-G (DNA, mismatch bulge abasic, abasic site (dSpacer, tetrahydrofuran residue) at X, opposite G, flanked by G; position in Figure 1B) ATGGTGGNGGCAGCG/CGCTGCCGCCACCAT; assay: UV melting at 260 nm; details: 0.1 M phosphate, 1 mM EDTA, pH 8.3 or 7.0 (unclear); 5 µM SG, 5 µM DNA
[7] = system: DNA1-A (DNA, mismatch bulge abasic, abasic site (dSpacer, tetrahydrofuran residue) at X, opposite A, flanked by T; position in Figure 1B) ATGGTGTNTGCAGCG/CGCTGCAAACACCAT; assay: UV melting at 260 nm; details: 0.1 M phosphate, 1 mM EDTA, pH 8.3 or 7.0 (unclear); 5 µM SG, 5 µM DNA
[8] = system: DNA4-G (DNA, mismatch bulge abasic, abasic site (dSpacer, tetrahydrofuran residue) at X, opposite G, flanked by C; position in Figure 1B) ATGGTGCNCGCAGCG/CGCTGCGGGCACCAT; assay: UV melting at 260 nm; details: 0.1 M phosphate, 1 mM EDTA, pH 8.3 or 7.0 (unclear); 5 µM SG, 5 µM DNA
[9] = system: DNA1-C (DNA, mismatch bulge abasic, abasic site (dSpacer, tetrahydrofuran residue) at X, opposite C, flanked by T; position in Figure 1B) ATGGTGTNTGCAGCG/CGCTGCACACACCAT; assay: fluorescence titration (586 nm), Scatchard; details: 0.1 M phosphate, 1 mM EDTA; pH 8.3 presumed; 1 µM SG; strongest site only
[10] = system: DNA4-C (DNA, mismatch bulge abasic, abasic site (dSpacer, tetrahydrofuran residue) at X, opposite C, flanked by C; position in Figure 1B) ATGGTGCNCGCAGCG/CGCTGCGCGCACCAT; assay: UV melting at 260 nm; details: 0.1 M phosphate, 1 mM EDTA, pH 8.3 or 7.0 (unclear); 5 µM SG, 5 µM DNA
[11] = system: DNA1-T (DNA, mismatch bulge abasic, abasic site (dSpacer, tetrahydrofuran residue) at X, opposite T, flanked by T; position in Figure 1B) ATGGTGTNTGCAGCG/CGCTGCATACACCAT; assay: UV melting at 260 nm; details: 0.1 M phosphate, 1 mM EDTA, pH 8.3 or 7.0 (unclear); 5 µM SG, 5 µM DNA

Compound: C[n+]1cc2c3c(ccc2c2ccc4cc5c(cc4c21)OCO5)OCO3
- ΔT [1]: 3.0 °C
- binding [2]: yes
- ΔT [3]: 5.4 °C
- ΔT [4]: 1.9 °C
- ΔT [5]: 5.7 °C
- ΔT [6]: 2.4 °C
- ΔT [7]: 1.9 °C
- ΔT [8]: 2.4 °C
- binding constant [9]: 1.7±0.15×10^7 M^−1
- ΔT [10]: 5.2 °C
- ΔT [11]: 3.8 °C
